Experimental data taken from patent publication US9963474B2, “Mitochondria-targeted dicarbonyl sequestering compounds” (MEDICAL RESEARCH COUNCIL, priority 2013, dated 2018).

How the values were obtained:
[1] = Stability of compounds assessed by RP-HPLC; assay type: physicochemical
Method: RP-HPLC was performed using a Gilson 321 pump with a C18 column (Jupiter 300 Å, Phenomenex) with a Widepore C18 guard column (Phenomenex). Samples (1 ml) were injected through a 0.22 μm PVDF filter (Millex, Millipore). HPLC buffer A [0.1% TFA in water] and HPLC buffer B (90% acetonitrile and 0.1% TFA) were used and a gradient was run at 1 ml/min at room temperature as follows: 0-2 min—5% B; 2-17 min—5-100% B; 17-19 min—100% B; 19-22 min—100-5% B. Peaks were detected by absorbance at 220 nm (UV/Vis 151, Gilson) and by fluorescence (excitation and emission wavelengths of 344 and 433 nm; RF-10AXL, Shimadzu). Partition coefficients between PBS and octan-1-ol were determined as previously described.
The syntheses of MitoG, its predicted quinoxaline products upon reaction with methylglyoxal and glyoxal, and their deuterated versions are summarized in FIG. 2. As expected, the spectrum of MitoG was a summation of those of the phenylenediamine, hexyloxyphenylenediamine (HP), and a simple alkylTPP salt.
The expected products of the reaction of MitoG with methylglyoxal (MQE) and glyoxal (QE) were synthesized and have UV/Vis absorption spectra distinct from that of MitoG (FIG. 3B). Both QE and MQE were fluorescent, while MitoG was not (FIG. 3C). The three compounds were resolved by RP-HPLC (FIG. 3D) although the MQE regioisomers (MQE1, MQE2; FIG. 1B) were not distinguished. Both MQE and QE were stable after one week at 37° C. as assessed by RP-HPLC (data not shown). It was concluded that MitoG is sufficiently stable for biological experiments involving trapping of glyoxal and methylglyoxal within mitochondria in cells and in vivo, and the reaction products MQE and QE were both robustly stable for chemical isolation and subsequent LC-MS/MS analyses.

[2] = Reaction rate with methylglyoxal (UV/Vis and fluorometric kinetics); details: 37° C., means±SE, n=3
Method: (A) The reactions between MitoG (100 μM) and 1,2-dicarbonyls (25 μM) at 37° C. were followed from the formation of the quinoxaline products at 345 nm. (B) Fluorimetric detection of the reaction between MitoG and methylglyoxal (40 μM each), and between MitoG and glyoxal (200 μM each) was observed by monitoring the quinoxaline products at excitation and emission wavelengths of 344 and 433 nm, respectively. The changes in fluorescence caused by MQE and QE formation was quantified from calibration curves constructed by plotting fluorescence (excitation and emission wavelengths of 344 and 433 nm, respectively) against known amounts of either quinoxaline and were linear up to at least 20 μM.
TPP-conjugated compounds were made up as 10 mM stock solutions in DMSO, flushed with argon and stored as aliquots at −20° C. […] The molar extinction coefficients were calculated from the absorbance at maximal absorption (λmax) for the compounds for solutions of known concentration. Reaction rates between MitoG and 1,2-dicarbonyls were determined from the initial linear slope over the first 30 s at the λmax for the formation of the relevant quinoxaline. Fluorescence spectra were obtained in 2.5 ml KCl buffer using a Shimadzu RF-301PC fluorimeter with slit widths of 3 nm. […]

[3] = tested on: RLM respiring on glutamate/malate; test: Protection against dicarbonyl-induced respiratory depression in isolated RLM; set-up: species or system rat; details: 37° C.
Method: (§1) Isolated RLM respiring on glutamate/malate were incubated with MitoG, methoxyphenylenediamine (MP) or butylTPP for 2 min, followed by 0.5 mM methylglyoxal or 5 mM glyoxal for 5 min. ADP was then added and the rate of oxygen consumption monitored at 37° C. (see FIGS. 12A & 12B). C2C12 cells were pre-treated with MitoG, methoxyphenylenediamine (MP) or butylTPP for 1 h before exposure to 1 mM methylglyoxal or 5 mM glyoxal (see FIGS. 12C & 12D). Following an overnight incubation, cell survival was determined using the MTS assay. Similar experiments were conducted in BAECs pre-treated with MitoG, MP or butylTPP. For all experiments, concentrations of methylglyoxal and glyoxal used were chosen based on results from studies conducted prior to the protection assays. In these prior studies, RLM or cells were exposed to a range of dicarbonyl concentrations, and the phosphorylating rates of respiration or cell survival were evaluated. The results of these earlier experiments are shown in insets, and dicarbonyl concentrations that had caused significant respiratory depression or cell death were chosen for use in the protection assays. Data for all groups were normalized against untreated controls. For RLM, the rate of respiration by untreated controls was taken to be 100%; for cells, cell survival of untreated controls was taken to be 100%. Results are expressed as mean±S.E. of three independent experiments. MitoG was protective against methylglyoxal-induced respiratory depression and both methylglyoxal- and glyoxal-induced cell death in C2C12 cells and BAECs. […] In FIG. 12 the symbols *, ** respectively indicate that P<0.05 or P<0.01 relative to dicarbonyl-only groups; and the symbols +, ++ respectively indicate that P<0.05 or P<0.01 relative to untreated controls.

BAECs = test: Protection against dicarbonyl-induced cell death, BAECs, MTS assay; assay type: cell-based, bovine; details: pre-treated 1 h, overnight
Method: as §1

Nc1ccc(OCCCCCC[P+](c2ccccc2)(c2ccccc2)c2ccccc2)cc1N [MitoG, (6-(3,4-Diaminophenoxy)hexyl)triphenylphosphonium chloride]
decomposition of dilute solutions, loss by 4 h ([1]; 37° C., 4 h): minimal loss | decomposition of dilute solutions, loss by 24 h ([1]; 37° C., 24 h): significant loss | duration of biological experiments for which sufficiently stable ([1]; dilute solutions, 37° C.): ~4 h | stability of stock solutions ([1]; storage at −20° C., RP-HPLC): stable | rate constant for reaction with methylglyoxal [2]: 19 ± 1 M⁻¹ s⁻¹ | protection against methylglyoxal-induced respiratory depression ([3]; 0.5 mM methylglyoxal): protected against methylglyoxal-induced respiratory depression in isolated RLM in a dose-dependent manner | protection against glyoxal-induced respiratory depression ([3]; 5 mM glyoxal): did not prevent glyoxal damage | protection against glyoxal-induced cell death (BAECs): protective | protection against methylglyoxal-induced cell death (BAECs): protective
